Test results reported in article PMC10762035, “Molecular basis of human trace amine-associated receptor 1 activation” (Nature Communications, 2024).
“And” between values parts separate entries of the source, which are not always exact repeats. Equal values may be shown once.

Columns and labels:
hTA1 [1] = molecular target: T1, hTA1 (Homo sapiens, UniProt Q96RJ0); test: Screen of 89 aminergic compounds at 10 µM, cAMP accumulation in HEK293T cells; format: cell-based; settings: 10 µM of compound; HEK293T; threshold log2-fold change of 2;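 also: HEK293T cells co-transfected with hTA1 and GloSensor cAMP reporter, cAMP accumulation detected by luminescence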
T1 construct: expressed in transfected cells; host or cells: HEK293T
T1 sequence (Q96RJ0 1-339): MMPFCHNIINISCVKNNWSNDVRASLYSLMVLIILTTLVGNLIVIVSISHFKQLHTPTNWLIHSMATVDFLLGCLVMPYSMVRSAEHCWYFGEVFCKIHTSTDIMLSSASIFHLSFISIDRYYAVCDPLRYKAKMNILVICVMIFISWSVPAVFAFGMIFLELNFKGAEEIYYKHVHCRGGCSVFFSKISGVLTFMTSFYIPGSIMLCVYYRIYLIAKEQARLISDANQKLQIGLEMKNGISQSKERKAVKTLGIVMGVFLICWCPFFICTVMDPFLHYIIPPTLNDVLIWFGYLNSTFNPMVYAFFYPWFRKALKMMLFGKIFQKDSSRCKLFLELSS

hTA1 [2] = molecular target: T1, hTA1; test: GloSensor cAMP accumulation assay, concentration response, wild-type hTA1 in transfected HEK293T cells; format: cell-based; settings: log[Compound], replicate wells;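 also: luminescence read after 30 min compound exposure at room temperature in cells preloaded with D-Luciferin, reflecting Gs-driven cAMP rise, efficacy scaled to the maximal β-PEA response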

SMILES: CCN(CC)C(=O)[C@@H]1C=C2c3cccc4[nH]cc(c34)C[C@H]2N(C)C1 [LSD]
- increase of signal over DMSO-treated controls (hTA1 activation) (hTA1 [1]): ≥ 4 fold
- Normalized Luminescence Counts for WT hTA1 (hTA1 [2]; M = -5): 23.2463 and 21.0198 and 23.6719 and 20.4035 and 14.0827 and 19.0998
- Normalized Luminescence Counts for WT hTA1 (hTA1 [2]; M = -5.522): 8.12 and 8.709 and 6.057 and 5.51 and 6.34 and 6.182
- Normalized Luminescence Counts for WT hTA1 (hTA1 [2]; M = -6): 3.405 and 1.833 (2×) and 1.7572 and 2.35 and 2.5473
- Normalized Luminescence Counts for WT hTA1 (hTA1 [2]; M = -6.522): 0.7855 and 1.3421 and 1.375 and 0.5325 and 0.8881 and 0.6116
- Normalized Luminescence Counts for WT hTA1 (hTA1 [2]; M = -7): -0.0003118 and 0.7527 and 0.5563 and 0.256 and -0.2575 and 0.2165
- Normalized Luminescence Counts for WT hTA1 (hTA1 [2]; M = -7.522): -0.164 and -0.426 and 0.2944 and -0.4946 (2×) and -0.09953
- Normalized Luminescence Counts for WT hTA1 (hTA1 [2]; M = -8): 0.7855 and 0.6873 and 0.03243 and 0.1375 and 0.6116 and -0.2575
- Normalized Luminescence Counts for WT hTA1 (hTA1 [2]; M = -8.522): -0.2295 and 0.4253 and 0.09791 and 0.05849 and -0.2971 and 0.6511
- Normalized Luminescence Counts for WT hTA1 (hTA1 [2]; M = -9): -0.8516 and -0.1968 and 0.1634 and 0.493 and -0.09953 and 0.2955
- Normalized Luminescence Counts for WT hTA1 (hTA1 [2]; M = -9.522): -0.295 and -0.3605 and -0.426 and -0.1785 and -0.3761 and -0.06003
- Normalized Luminescence Counts for WT hTA1 (hTA1 [2]; M = -10): -0.09854 and 0.2289 and -0.3605 and -0.4946 and -0.5736 and -0.6131
- Normalized Luminescence Counts for WT hTA1 (hTA1 [2]; M = -10.522): -0.4587 (2×) and -0.1313 and -0.218 and -1.245 and 0.01898
- Normalized Luminescence Counts for WT hTA1 (hTA1 [2]; M = -11): -0.09854 and 0.3598 and 0.6873 and -0.1785 and -0.09953 and 1.007
- Normalized Luminescence Counts for WT hTA1 (hTA1 [2]; M = -11.522): 0.2289 and 1.08 and 0.3926 and 1.086 and 1.046 and -0.2971
- Normalized Luminescence Counts for WT hTA1 (hTA1 [2]; M = -12): -0.4587 and 0.1634 and 0.4253 and 0.7696 and -0.2575 and 1.836
- Normalized Luminescence Counts for WT hTA1 (hTA1 [2]; M = -12.522): 1.735 and 0.5236 and 0.2616 and 0.05849 and -0.218 and 0.3745

SMILES: C[C@H](N)Cn1ccc2cc(F)c(Cl)cc21 [Ro600175]
- increase of signal over DMSO-treated controls (hTA1 activation) (hTA1 [1]): ≥ 4 fold
- Normalized Luminescence Counts for WT hTA1 (hTA1 [2]; M = -5): 52.641 and 46.7523 and 44.37 and 49.7206 and 44.9424 and 49.1048
- Normalized Luminescence Counts for WT hTA1 (hTA1 [2]; M = -5.522): 20.1192 and 21.0025 and 20.1995 and 33.6184 and 30.3798 and 33.3903
- Normalized Luminescence Counts for WT hTA1 (hTA1 [2]; M = -6): 10.3493 and 9.439 and 10.7776 and 14.1863 and 14.9846 and 14.3574
- Normalized Luminescence Counts for WT hTA1 (hTA1 [2]; M = -6.522): 3.39 and 1.971 and 3.3096 and 6.785 and 7.013 and 6.8993
- Normalized Luminescence Counts for WT hTA1 (hTA1 [2]; M = -7): 0.6865 and 0.9274 and 0.7668 and 2.03 and 1.973 and 1.7904
- Normalized Luminescence Counts for WT hTA1 (hTA1 [2]; M = -7.522): -0.2504 and 0.2582 and -0.2236 and 0.6842 and 0.6044 and 0.3991
- Normalized Luminescence Counts for WT hTA1 (hTA1 [2]; M = -8): 0.5258 and 0.5794 and 1.275 and 0.4333 and 0.3763 and 0.3649
- Normalized Luminescence Counts for WT hTA1 (hTA1 [2]; M = -8.522): 0.4991 and -0.1166 and 0.392 and 0.03421 and 0.3649 and 0.2509
- Normalized Luminescence Counts for WT hTA1 (hTA1 [2]; M = -9): 0.01728 and 0.7935 and -0.1969 and 0.1026 and 0.3877 and 0.2737
- Normalized Luminescence Counts for WT hTA1 (hTA1 [2]; M = -9.522): 0.07081 and -0.08979 and -0.1166 and -0.1482 and -0.114 and 0.07983
- Normalized Luminescence Counts for WT hTA1 (hTA1 [2]; M = -10): 0.1243 and -0.009489 and 0.4188 and -0.1825 and -0.0114 and -0.03421
- Normalized Luminescence Counts for WT hTA1 (hTA1 [2]; M = -10.522): -0.06302 and -0.3842 and 0.1779 and -0.2053 and 0 and -0.05702
- Normalized Luminescence Counts for WT hTA1 (hTA1 [2]; M = -11): 0.6329 and 0.3117 and 0.7132 and -0.06842 and 0.4447 and 0.2509
- Normalized Luminescence Counts for WT hTA1 (hTA1 [2]; M = -11.522): 0.4188 and 0.7668 and 0.8738 and 0.4676 and 0.2509 and 0.707
- Normalized Luminescence Counts for WT hTA1 (hTA1 [2]; M = -12): 0.5258 and 0.5526 and 1.302 and -0.114 and 0.2737 and 0.1368
- Normalized Luminescence Counts for WT hTA1 (hTA1 [2]; M = -12.522): 0.2046 and 0.1779 and 0.2849 and 0.2623 and 0.4219 and 0.2395

SMILES: O=C1Nc2cc(Cl)c(Cl)cc2N2CCNCC12 (stereo not drawn) [WAY161503]
- increase of signal over DMSO-treated controls (hTA1 activation) (hTA1 [1]): ≥ 4 fold
- Normalized Luminescence Counts for WT hTA1 (hTA1 [2]; M = -5): 13.2601 and 18.8261 and 16.7307 and 26.6058 and 24.591 and 22.5763
- Normalized Luminescence Counts for WT hTA1 (hTA1 [2]; M = -5.522): 7.105 and 8.152 and 8.742 and 7.88 and 6.893 and 7.327
- Normalized Luminescence Counts for WT hTA1 (hTA1 [2]; M = -6): 0.3926 and 0.6218 and 0.4581 and 2.389 and 1.639 and 1.7967
- Normalized Luminescence Counts for WT hTA1 (hTA1 [2]; M = -6.522): -0.0003118 and -0.03305 and -0.426 and 0.5325 and 0.2955 and 0.6511
- Normalized Luminescence Counts for WT hTA1 (hTA1 [2]; M = -7): -0.426 and -1.114 and -0.7861 and -0.2575 (2×) and -0.3366
- Normalized Luminescence Counts for WT hTA1 (hTA1 [2]; M = -7.522): -0.8516 and -1.277 and -0.6879 and -0.3366 and -0.4946 and -1.166
- Normalized Luminescence Counts for WT hTA1 (hTA1 [2]; M = -8): -0.09854 and -0.3605 (2×) and 0.09799 and 0.6511 and -0.3761
- Normalized Luminescence Counts for WT hTA1 (hTA1 [2]; M = -8.522): -0.3605 and -0.7206 and -0.3932 and 1.165 and 1.046 and 0.6116
- Normalized Luminescence Counts for WT hTA1 (hTA1 [2]; M = -9): -1.048 and -0.2622 and -0.8516 and -0.06003 and 0.2165 and 0.414
- Normalized Luminescence Counts for WT hTA1 (hTA1 [2]; M = -9.522): -1.277 and -0.8516 and -0.7861 and 0.6116 and 0.01898 and -0.6526
- Normalized Luminescence Counts for WT hTA1 (hTA1 [2]; M = -10): -0.7206 and -0.7534 and -0.3605 and -0.8106 and -0.1785 and -1.087
- Normalized Luminescence Counts for WT hTA1 (hTA1 [2]; M = -10.522): -0.5897 and -0.09854 and -0.6224 and 0.01898 and -0.3761 and -0.7316
- Normalized Luminescence Counts for WT hTA1 (hTA1 [2]; M = -11): 0.09791 and 0.03243 and -0.6224 and -0.2971 and 0.5325 and 0.3745
- Normalized Luminescence Counts for WT hTA1 (hTA1 [2]; M = -11.522): -0.0003118 and -0.5242 and 0.06517 and -0.09953 and -0.4156 and 0.177
- Normalized Luminescence Counts for WT hTA1 (hTA1 [2]; M = -12): -0.3277 and -0.295 and -0.8189 and 0.4535 and -0.2971 and -0.4156
- Normalized Luminescence Counts for WT hTA1 (hTA1 [2]; M = -12.522): -0.3932 and -0.5897 (2×) and 0.4535 and -0.4551 and 0.09799
